Among the data in a melting point compilation (Tetko et al.; mined from patent text by program, amines drawn as free bases though some values may be those of a salt) are melting point values, retold here.

As to `COc1ccc(C(=O)N(C(=O)c2ccc(OC)cc2)c2nc3ccc([N+](=O)[O-])cc3c(NCc3ccccc3)c2C#N)cc1`, the melting point (as a rule, the temperature, or range, at which the solid turns liquid) lay in the range of 145 to 148 °C.

`CC1=C(C(=O)OC(C)(C)C)C(c2cccc(Cl)c2Cl)C(C(=O)OC(C)(C)C)=C(C)N1`: the melting point is 144 to 145 °C.

For the molecule `O=C(O)CCCc1ccc2c(NC(=O)CC3CCCCC3)c(Cl)ccc2n1`, the melting point fell in the range of 216 to 220 °C.

`CCCSc1cccc(-c2nc(=O)c3ccccc3s2)n1` returned a melting point of 124 to 125 °C.

The molecule `CSc1c(C(=O)NN2CCCCC2)nn(-c2ccc(Cl)cc2Cl)c1-c1ccc(Cl)cc1` came in with a melting point of 172 to 174 °C.

As to `COc1ccc(CC(=O)O)c(C(=O)c2ccccc2)c1`, the melting point lay in the range of 158 to 159 °C.

`[N-]=[N+]=Nc1ccc(Cl)cc1C(=O)c1ccccc1` came in with a melting point of 81 to 83 °C.

Consider `CCOCc1nc2c(N)nc(C)c(C)c2n1N(C)C`, for which the melting point fell in the range of 170 to 171 °C.

Regarding `Cc1ccc(C(=O)NCC(O)CO)cc1-n1c(C)cc(OCc2ccccc2CNC(=O)Nc2cc(C(C)(C)C)nn2-c2cccc(OCCO)c2)c(Cl)c1=O` (centres undefined), the melting point was in the range of 158 to 160 °C.

Regarding `CCc1ccc(C(=O)Nc2ccccc2O)cc1`, the melting point is 103 to 105 °C.

In turn, `CCCCC/C=C\C/C=C\CCCCCCCC(=O)Nc1c(OC)cc(OC)cc1OC` had a melting point of 87 to 89 °C.

`COC(=O)c1ccc(SC)c(OC(C)C)c1` showed a melting point of 41 to 43 °C.

Take `COc1cc2c(cc1OC)CN(CCCCNC(=O)c1cc(C)ccc1OCCOCCF)CC2`: the melting point lay within 89.2 to 89.5 °C.

In turn, `O=C1Nc2ccccc2C1(O)c1ccc2c(c1)OCO2` (centres undefined) came in with a melting point of 177 to 180 °C.

In the case of `O=C(c1c(F)cccc1F)C1CC1c1ccc(Br)cc1` (centres undefined), the melting point was 64 to 65 °C.

The molecule `CC1(C)Cc2c(Cl)c([N+](=O)[O-])cc(C(=O)O)c2O1` gave a melting point of 260 to 262 °C.

Turning to `O=C1CCC(N2Cc3c(OCc4ccc(CN5CCN(C(=O)CCCCC6SCC7NC(=O)NC76)CC5)cc4)cccc3C2=O)C(=O)N1` (centres undefined), the melting point is 168 to 170 °C.

On to `CN1CC(Cl)CC2c3cccc4[nH]cc(c34)CC21` (centres undefined), for which the melting point was 195 to 197 °C.

Take `CON=C(OC)C(=O)c1ncsc1C`: the melting point was 65 °C.

For the molecule `CS(=O)(=O)CS(C)(=O)=O`, the melting point came to 146 °C.

For the molecule `Cc1ccc(-c2cc(=O)c(Br)c(C(=O)O)o2)cc1`, the melting point is 202 to 204 °C.

Take `CC(=O)N(CC(C)C)C1NC(=O)N(c2ccc(C)cc2)C(=O)N1`: the melting point is 159 to 160 °C.

As to `CCN(CC)C(=O)c1ccnc(Br)c1`, the melting point is 200 to 203 °C.

`O=C(O)CNC(=O)c1nc2ccc(OCC(F)(F)C(F)(F)C(F)(F)C(F)F)cc2cc1O` had a melting point of 170 to 172 °C.

With `CC(=O)OCC12CCC(OC(C)=O)CC1CCC1C2CCC2(C)C(OC(=O)C(C)(C)C)CCC12O` (centres undefined), the melting point is 155 to 156 °C.

`CCCCCCCc1ccc(CC2C=CC(Oc3ccc(C(=O)O)o3)=C3N=C4CCCCC4=C32)cc1` (centres undefined) had a melting point of 164 to 165 °C.

Molecule `Nc1cc(C(F)(F)F)cc([N+](=O)[O-])c1N` had a melting point of 121 to 123 °C.

For the molecule `CS(=O)(=O)c1ccc(-c2coc3ccc(-c4nnc(N)o4)cc23)cc1Cl`, the melting point lay within 263 to 264 °C.

In the case of `N#Cc1ccc2c(c1)Sc1ccc(Cl)cc1C=C2`, the melting point lay in the range of 207 to 210 °C.

Turning to `Cc1ccc(N(c2ccc(C)cc2)c2ccc(C=C3c4ccccc4C=Cc4ccccc43)cc2)cc1`, the melting point was 168 to 169 °C.

The molecule `Cc1cccc(CC(N)(CF)C(=O)O)c1O` (centres undefined) gave a melting point of 168 °C.

Molecule `CC(C=C(N)C(=O)OCc1ccc(Cl)cc1)CP(=O)(O)O` (centres undefined) displayed a melting point of 207 to 208 °C.

`Cc1noc(C)c1-c1ccc2c(c1)ncc1ncn(-c3ccccc3C(C)(C)C)c12` came in with a melting point of 216 °C.

For the molecule `C=CC(=O)O[C@H]1CC[C@H](c2cccc(F)c2F)CC1`, the melting point lay within 72.9 to 73.6 °C.

For `CCOC(=O)c1cn(C)nc1Nc1ccc(F)cc1[N+](=O)[O-]`, the melting point turned out to be 162 °C.

As to `CSCOc1ccc2c(c1)CCC1C2CCC2(C)C(=O)CCC12` (centres undefined), the melting point came to 65 °C.

`COc1ccc(C(=O)Nc2ccc(-c3ncc(-c4ccc(NC(=O)C5CCCCCC5)cc4)[nH]3)cc2)cc1`: the melting point lay within 311 to 313 °C.

`COc1ccc2cc(CCCCC(O)CCc3cccnc3)ccc2c1` (centres undefined): the melting point is 83 to 84 °C.

The molecule `CCCCOC(=O)n1c2ccccc2c2nc3ccccc3cc21` came in with a melting point of 168 °C.

Turning to `O=S(=O)(Nc1ccc2c(OCc3cccc(Br)c3)cccc2c1)C(F)(F)F`, the melting point is 113 to 115 °C.

As for `O=C1CCC(c2ccc3[nH]c(C(=O)O)cc3c2)=NN1`, the melting point was 185 to 187 °C.

Turning to `Cn1cncc1C(c1ccc(Cl)cc1)c1ccc2c(c1)C(c1cccc(Cl)c1)SCC(=O)N2` (centres undefined), the melting point stood at 187 °C.

Regarding `CCC(C)CCCC(C)C1CC(=O)C2(C(=O)O)C3=C(CCC12C)C1(C)CCC(O)CC1CC3` (centres undefined), the melting point lay within 195 to 196 °C.

In turn, `CCONC(=O)c1c(Cl)ccc2cc(Cl)cnc12` displayed a melting point of 140 °C.

As to `CCSc1c(O[C@H]2CC[C@H](N)CC2)ccc2[nH]ncc12`, the melting point lay within 157 to 158 °C.

With `COc1ccc(N2CCN(Cc3n[nH]c4c(F)c(F)ccc34)CC2)cc1`, the melting point was 195 to 197 °C.

In turn, `CC(=O)c1ccc(-c2ccc(F)cc2)c(O)c1` had a melting point of 152 to 154 °C.

As for `COC(=O)N1C[C@@H]2CN(c3ccc(N4C[C@H](CNC(C)=O)OC4=O)cc3F)C[C@@H]2C1`, the melting point lay within 128 to 132 °C.

Molecule `CCOC(=O)N1CCN(c2nc(NC3CC3)ccc2F)CC1` yielded a melting point of 68 to 70 °C.

`COc1ccc(CC#N)c2c1OC(C)(C)O2`: the melting point fell in the range of 58 to 59 °C.

`Cc1ccc(Cn2cc(CC(=O)O)c3cc(-c4ccc(OC(F)(F)F)cc4)ccc32)cc1` showed a melting point of 62 to 63 °C.

`COC(=O)c1ccc2oc(-c3ccccc3O)cc(=O)c2c1` registered a melting point of 290 to 291 °C.

Molecule `c1ccc(-c2nc(COc3ccc(CCCCn4ccnc4)cc3)co2)cc1` gave a melting point of 113 to 114 °C.

Molecule `O=C(CCn1cnc2c(=O)[nH]cnc21)NC(Cc1ccccc1)C(=O)O` (centres undefined) displayed a melting point of 240 to 242 °C.

As to `COc1cc(N)nc(N2CCOCC2)n1`, the melting point fell in the range of 162 to 164 °C.

As to `NCc1ccn(-c2cc3[nH]c(=O)c(=O)[nH]c3cc2[N+](=O)[O-])c1`, the melting point is above 300 °C.

In turn, `O=c1c(Cc2ccncc2)c(-c2ccc(Cl)cc2)[nH]c2ccccc12` showed a melting point of 232 to 234 °C.

With `Cc1nnc(-c2ccc3c(c2)c2cc(-c4ccc(Cl)cc4Cl)c(=O)n(C)c2n3C)o1`, the melting point lay within 311 to 316 °C.

With `COc1ccc(O)cc1/C=C/C(=O)CC(=O)/C=C/c1cc(O)ccc1Br`, the melting point fell in the range of 90 to 96 °C.

Consider `Cc1nc(O)c([N+](=O)[O-])c(Cl)n1`, for which the melting point lay in the range of 194 to 196 °C.

The molecule `O=C(O)c1cccc(Nc2nc(Oc3ccccc3)nc(Oc3cccc([N+](=O)[O-])c3)n2)c1` returned a melting point of 225 to 228 °C.

The molecule `CN(C)c1nc2n(n1)CCc1ccccc1-2` displayed a melting point of 66 to 68 °C.

Turning to `COc1cc2sc(/C=C(\Oc3ccc(C(C)C)cc3)C(=O)O)cc2c(Cl)c1OC`, the melting point lay within 255 to 256 °C.

For `COc1ccc(Cl)cc1C(C)(C)O`, the melting point is 56 °C.

As for `CC(C)(C)OC(=O)N1CCN(C(=O)Oc2ccc(Oc3ccc(C(F)(F)F)cn3)cc2)CC1`, the melting point is 165 to 166 °C.

`Cc1ccc(N2C(=O)c3ccccc3C2=O)c(O)c1` had a melting point of 251 to 254 °C.

The molecule `O[C@H]1c2cc(OCc3cccnc3)ccc2OC[C@H]1Cc1cccnc1` (relative stereo) displayed a melting point of 145 to 147 °C.

The molecule `CCN1C(=O)C(C)(C)c2ccc(C(=O)Nc3ccc(C#N)cc3)cc21` gave a melting point of 211 to 213 °C.

For `O=C1N(Cc2sccc2Cl)c2ccccc2C12COc1cc3c(cc12)OCO3` (centres undefined), the melting point was 161 to 163 °C.

`O=c1n(-c2ccc(Cl)cc2)c(=O)n(SC(Cl)(Cl)Cl)n1SC(Cl)(Cl)Cl`: the melting point was 169 °C.

In turn, `CNC(=O)c1ccccc1CC(O)(CCN(C)C)c1ccccc1` (centres undefined) yielded a melting point of 140 °C.

For the molecule `CCc1ccccc1NC(=O)C(C#N)=C(C)N(C)C`, the melting point is 79 to 81.5 °C.

Turning to `OCC12CC3CC(CC(C3)C1Br)C2` (centres undefined), the melting point turned out to be 138 °C.

The molecule `Cc1cc(C(=O)O)n(CC(F)(F)F)n1` returned a melting point of 135 to 139 °C.

Molecule `COc1ccc(OC)c(C2Nc3ccccc3S2)c1` (centres undefined) gave a melting point of 96 to 99 °C.

`CC(NCCN(CCNC(C)=C1C(=O)CC(C)(C)CC1=O)C(=O)CCC(=O)O)=C1C(=O)CC(C)(C)CC1=O` displayed a melting point of 65 to 68 °C.

The molecule `Nc1cccc(-c2nc3n(n2)CCc2ccccc2-3)c1` came in with a melting point of 118 to 119 °C.

As to `CCN1C(=O)CN(c2ccccc2)C1=S`, the melting point amounted to 122 °C.

The molecule `COCCN1CCn2c1nc(C(=O)NCc1ccc(F)cc1)c(OCc1ccccc1)c2=O` returned a melting point of 150 °C.

In turn, `COc1nc(NNc2nc(OC)nc(OC)n2)nc(OC)n1` yielded a melting point of 222 to 224 °C.

On to `CCN(CC)CCOc1ccc(-n2c(-c3ccccc3)cc(=O)c3ccccc32)cc1`, for which the melting point is 115 to 117 °C.

`CC(C)(C)OC(=O)Nc1cc(N2CCC3(CC2)OCCO3)c(C#Cc2ccccc2)cc1[N+](=O)[O-]` registered a melting point of 179 to 180 °C.

`Cc1csc(N)c1C(=O)c1ccc(Cl)cc1` registered a melting point of 148 to 150 °C.

On to `O=C(Nc1cccc(S(=O)(=O)NCC2CC2)c1)c1cnn2c(C(F)F)cc(-c3ccc(C(F)(F)F)cc3)nc12`, for which the melting point was 238 °C.

`NS(=O)(=O)CCCSc1ccc2nc(Cl)cn2n1` came in with a melting point of 117 to 118 °C.

The molecule `CC(O)(CCN1CCOCC1)c1ccc(-c2ccc(Cl)cc2)cc1` (centres undefined) returned a melting point of 106 to 108 °C.

In the case of `COCCSC(F)(F)C(O)(Cn1cncn1)c1ccc(F)cc1F` (centres undefined), the melting point was in the range of 80 to 81 °C.

Molecule `CCOC(=O)C(=Cc1c(Cl)n(Cc2ccc(Cl)cc2)c2ccccc12)C(=O)OCC` displayed a melting point of 98 to 99 °C.

`Cc1c(CNCC(C)C)[nH]c2c(C)c(NC(=O)c3ccc(OC[C@@H]4CCCO4)cc3)ccc12`: the melting point fell in the range of 118 to 119 °C.
